Results taken from patent US7186751B2, “Injectable composition of paclitaxel” (priority 2001, dated 2007).

Key:
rat [1] = conditions: cited from earlier work
rat [2] = conditions: ratio of LD50 in rat
Source text: The common stabilizer has danger in the safety in case of excessive use.

CC(=O)N[C@@H](CS)C(=O)O [N-acetyl cysteine]
LD50 (rat [1]): 3600 mg/kg
Lower toxicity than citric acid (rat [2]): 90 times
